pEC50: −log10 of the molar value. Like-named read-outs stand apart in the source and are kept apart here.
Key:
[1] = Pharmacokinetics of oral administration and intravenous injection in SD rats; assay type: in vivo; conditions: male, rat, plasma
Protocol: 2. Study on the Pharmacokinetics of Oral Administration and Intravenous Injection of the Compound Represented by Formula (I) in SD Rats The compound represented by formula (I) was mixed with 5% DMSO/55% polyethylene glycol 400/40% aqueous solution, vortexed and sonicated to obtain an approximately clear solution of 1 mg/mL, which was then filtered by a microporous membrane for later use. Male SD rats aged 7 to 10 weeks were selected and the candidate compound solution was administered intravenously at a dose of 1 mg/kg. The compound represented by formula (I) was mixed with 10% solutol aqueous solution, vortexed and sonicated to obtain an approximately clear solution of 1 mg/mL, which was then filtered through a microporous membrane for later use. Male SD rats aged 7 to 10 weeks were selected and the candidate compound solution was orally administered at a dose of 10 mg/kg. Whole blood was collected at a certain period of time to prepare plasma, drug concentration was analyzed by LC-MS/MS method, and pharmacokinetic parameters was calculated by Phoenix WinNonlin software (Pharsight, USA). Note: T1/2 means half-life; Vdss means apparent volume of distribution; Cl means clearance rate; AUC0_last means area below the drug-time curve; Tmax means peak time; Cmax means peak concentration; F % means oral bioavailability; iv means intravenous injection; PO means oral administration; mpk means mg/kg.

HBV = HBV in vitro test: quantitative qPCR of HBV DNA in HepG2.2.15 cells; assay type: cell-based
Protocol: The HBV DNA content in HepG2.2.15 cells was detected by Real-time quantitative qPCR, and EC50 value of compounds was used as an indicator to evaluate inhibitory effect of compounds on HBV.
2.1 Cell Line: HepG2.2.15 Cells
3.1 HepG2.2.15 cells (4×10^4 cells/well) were bedded to a 96-well plate and cultured overnight at 37° C., 5% CO2.
3.2 On the day 2, the compound was diluted to a total of 8 concentrations, with a 3-fold gradient dilution. Different concentrations of compounds were added to the culture wells in duplicate. The final concentration of DMSO in the culture medium was 1%. 1 μM GLS4 was used as a 100% inhibition control; 1% DMSO was used as a 0% inhibition control.
3.3 On the day 5, the culture medium was replaced with fresh culture medium containing the compound.
3.4 On the day 8, the culture medium in the culture wells was collected, and DNA was extracted with the high-throughput DNA purification kit (Qiagen-51162). Refer product manual for specific steps.
3.6 15 μL of reaction mixture was added to each well of a 96-well PCR plate, and then 10 μL of sample DNA or HBV DNA standard was added to each well.
3.7 The reaction settings for PCR are: heating at 95° C. for 10 minutes; then denaturation at 95° C. for 15 seconds, and extension at 60° C. for 1 minute, a total of 40 cycles. […]

hepatitis B virus = assay: In vivo drug efficacy, AAV/HBV mouse model; conditions: AAV/HBV mouse model, 15, 50, 150 mg/kg BID PO, 28 days
Protocol: FIG. 7: The level of Hepatitis B virus DNA in plasma; broken line 1 means blank control, 10% solutol aqueous solution was administered quaque die (QD), per os (PO); broken line 2 means that WX-325 was administrated at a dose of 15 mg/kg bis in die (BID) at an interval of 8 hours, per os (PO); the broken line 3 means that WX-325 was administrated at a dose of 50 mg/kg bis in die (BID) at an interval of 8 hours, per os (PO); broken line 5 means that WX-325 was administrated at a dose of 150 mg/kg bis in die (BID) at an interval of 8 hours, per os (PO); broken line 6 means that tenofovir (TDF) of the positive compound was administrated at a dose of 15 mg/kg bis in die (BID) at an interval of 8 hours, per os (PO); LLOQ means lower limit of detection; Note: WX-325 in FIG. 7 means the compound represented by formula (I) of the present invention. […]
Experimental operation: The day of the first administration was designated as day 0, the day before administration was designated as day −1, the day after administration was designated as day 1, and so on. […] The content of HBV DNA, HBeAg and HBsAg were detected using the serum. […] Both drugs were administered for 28 days, and blood samples were taken on day 3, 7, 10 and 28 after administration, and the level of HBV DNA in plasma was detected by qPCR. […]

SMILES: Cc1cc2n(c1)S(=O)(=O)c1ccc(C(=O)NCC[C@H]3COCCO3)cc1NC2=O [compound represented by formula (I)]
- clearance ([1]; 1 mg/kg, iv 1 mpk): 8.5 mL/min/kg
- half-life ([1]; 1 mg/kg, iv 1 mpk): 57 min
- AUC(0-t) ([1]; 1 mg/kg, iv 1 mpk, read-out: AUC0-last): 4.82 µM·h
- Vd ([1]; 1 mg/kg, iv 1 mpk, read-out: Vdss): 0.56 L/kg
- Cmax ([1]; 10 mg/kg, po 10 mpk): 8.57 µM
- Tmax ([1]; 10 mg/kg, po 10 mpk): 30 min
- bioavailability ([1]; 10 mg/kg, po 10 mpk): 65%
- AUC(0-t) ([1]; 10 mg/kg, po 10 mpk, read-out: AUC0-24h): 31.1 µM·h
- inhibitory effect on HBV (conclusion in words) (HBV): significant inhibitory effect
- pEC50 (HBV; Hepatitis B virus, HBV DNA by qPCR, read-out: 50% inhibitory concentration (EC50) value of HBV): 8.09
- in vivo efficacy, HBV DNA in plasma and liver (conclusion in words) (hepatitis B virus): good in vivo efficacy and a dose-dependent effect

From patent US11952388B2, “Crystal form of tri-cycle compound and application thereof” (FUJIAN AKEYLINK BIOTECHNOLOGY CO., LTD., priority 2018, dated 2024)
